Reference: patent US20150118231A1, “APOE4 ANTIBODIES FOR TREATMENT OF NEURODEGENERATIVE CONDITIONS” (RAMOT AT TEL-AVIV UNIVERSITY LTD., priority 2012, published 2015)

What was measured:
apoE3 and apoE4 mice [1] = test: Bexarotene by gavage: Morris swim test; type: in vivo; settings: 100 mg per kg per day by gavage
Description: Next, the mice were further investigated following removal of the platform from the water arena.

apoE3 and apoE4 mice [2] = test: Bexarotene by gavage: fear conditioning test; type: in vivo; settings: 100 mg per kg per day by gavage; mild electric shock
mouse model of AD = settings: oral administration; cited from earlier work
apoE3 and apoE4 mice [3] = test: Bexarotene by gavage: object recognition test; settings: 100 mg per kg per day by gavage; apoE4 mice prefer the novel object, similarly to apoE3 mice

## C=C(c1ccc(C(=O)O)cc1)c1cc2c(cc1C)C(C)(C)CCC2(C)C [Bexarotene]
apoE3 and apoE4 mice [1]; days 1-4, rendered similar to apoE3 mice
  Morris swim test, time to reach the platform, apoE4 mice: improves
apoE3 and apoE4 mice [1]; platform removed
  Morris swim test, time searching for the missing platform: difference between apoE3 and apoE4 mice: abolished
apoE3 and apoE4 mice [2]
  fear conditioning, freezing time: difference between apoE3 and apoE4 mice: abolished
Mouse model of AD
  apoE synthesis: enhanced
  clearance of soluble Aβ: within hours
  cognitive deficits: rapid reversal
  neural circuit function: improved
  time to reduced Aβ plaque area: ≤ 72 h
apoE3 and apoE4 mice [3]
  object recognition impairment in apoE4 mice (time spent near the novel object): reversed
